This test deals with T1, Beta-glucuronidase (Homo sapiens, UniProt P08236).
T1 sequence (P08236 whole entry): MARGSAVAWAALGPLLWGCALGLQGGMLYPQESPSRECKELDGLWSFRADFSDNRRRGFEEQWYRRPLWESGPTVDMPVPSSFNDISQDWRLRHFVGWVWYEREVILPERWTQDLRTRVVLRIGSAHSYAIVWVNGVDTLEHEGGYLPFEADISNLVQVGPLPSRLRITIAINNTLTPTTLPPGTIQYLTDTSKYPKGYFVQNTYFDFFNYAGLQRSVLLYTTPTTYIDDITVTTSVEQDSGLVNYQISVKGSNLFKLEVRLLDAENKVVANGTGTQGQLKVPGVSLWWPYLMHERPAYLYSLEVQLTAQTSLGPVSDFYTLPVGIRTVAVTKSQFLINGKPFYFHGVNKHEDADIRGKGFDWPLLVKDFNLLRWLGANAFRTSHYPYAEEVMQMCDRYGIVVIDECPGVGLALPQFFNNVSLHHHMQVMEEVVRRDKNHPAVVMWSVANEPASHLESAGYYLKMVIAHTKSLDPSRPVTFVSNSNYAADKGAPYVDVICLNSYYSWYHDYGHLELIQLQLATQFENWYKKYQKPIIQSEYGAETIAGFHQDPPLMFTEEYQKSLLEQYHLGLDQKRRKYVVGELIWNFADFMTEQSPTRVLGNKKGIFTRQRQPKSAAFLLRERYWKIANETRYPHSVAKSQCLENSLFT

The values below come from ChEMBL document CHEMBL4340576, “Synthesis of oxadiazole-coupled-thiadiazole derivatives as a potent β-glucuronidase inhibitors and their molecular docking study” (Bioorg Med Chem, 2019).

Description: Inhibition of human beta-glucuronidase pre-incubated for 30 mins before p-nitrophenyl-beta-D-glucuronide substrate addition by spectrophotometry

`COc1cc(O)ccc1-c1nnc(-c2ccc(-c3nnc(-c4cccc(C)c4)s3)cc2)o1`: the IC50 result is “Not Active”.
For the compound `COc1cc(O)ccc1-c1nnc(-c2ccc(-c3nnc(-c4cccc([N+](=O)[O-])c4)s3)cc2)o1`, the IC50 result is “Not Active”.
Under `COc1cc(O)ccc1-c1nnc(-c2ccc(-c3nnc(-c4cccnc4)s3)cc2)o1` stands “Not Active”; under `COc1cc(O)ccc1-c1nnc(-c2ccc(-c3nnc(-c4ccncc4)s3)cc2)o1`, “Not Active”.
